The values that follow come from patent publication US9902702B2, “Spirocycloheptanes as inhibitors of rock” (BRISTOL-MYERS SQUIBB COMPANY, priority 2014, dated 2018).

The target in this assay is ROCK2 (Homo sapiens, UniProt O75116). As to the kind of experiment: ROCK assay: phosphorylation of FITC peptide substrate, LABCHIP 3000 mobility shift. Format: biochemical. Particulars: 5 μM ATP, 1.5 μM peptide substrate; read-out: ROCK2 Activity (ROCK IC50 range). The method, boiled down: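 Rho kinase variant phosphorylates 1.5 μM FITC-AHA-AKRRRLSSLRA-OH with 5 μM ATP in 20 mM HEPES pH 7.5, 20 mM MgCl2, 0.015% Brij-35, 4 mM DTT, DMSO <2%. EDTA stops the reaction, and phospho and non-phospho peptides are resolved by LabChip 3000 mobility shift. IC50 from dose-response curve fit.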
Sequence of ROCK2 (O75116 whole entry, species assumed): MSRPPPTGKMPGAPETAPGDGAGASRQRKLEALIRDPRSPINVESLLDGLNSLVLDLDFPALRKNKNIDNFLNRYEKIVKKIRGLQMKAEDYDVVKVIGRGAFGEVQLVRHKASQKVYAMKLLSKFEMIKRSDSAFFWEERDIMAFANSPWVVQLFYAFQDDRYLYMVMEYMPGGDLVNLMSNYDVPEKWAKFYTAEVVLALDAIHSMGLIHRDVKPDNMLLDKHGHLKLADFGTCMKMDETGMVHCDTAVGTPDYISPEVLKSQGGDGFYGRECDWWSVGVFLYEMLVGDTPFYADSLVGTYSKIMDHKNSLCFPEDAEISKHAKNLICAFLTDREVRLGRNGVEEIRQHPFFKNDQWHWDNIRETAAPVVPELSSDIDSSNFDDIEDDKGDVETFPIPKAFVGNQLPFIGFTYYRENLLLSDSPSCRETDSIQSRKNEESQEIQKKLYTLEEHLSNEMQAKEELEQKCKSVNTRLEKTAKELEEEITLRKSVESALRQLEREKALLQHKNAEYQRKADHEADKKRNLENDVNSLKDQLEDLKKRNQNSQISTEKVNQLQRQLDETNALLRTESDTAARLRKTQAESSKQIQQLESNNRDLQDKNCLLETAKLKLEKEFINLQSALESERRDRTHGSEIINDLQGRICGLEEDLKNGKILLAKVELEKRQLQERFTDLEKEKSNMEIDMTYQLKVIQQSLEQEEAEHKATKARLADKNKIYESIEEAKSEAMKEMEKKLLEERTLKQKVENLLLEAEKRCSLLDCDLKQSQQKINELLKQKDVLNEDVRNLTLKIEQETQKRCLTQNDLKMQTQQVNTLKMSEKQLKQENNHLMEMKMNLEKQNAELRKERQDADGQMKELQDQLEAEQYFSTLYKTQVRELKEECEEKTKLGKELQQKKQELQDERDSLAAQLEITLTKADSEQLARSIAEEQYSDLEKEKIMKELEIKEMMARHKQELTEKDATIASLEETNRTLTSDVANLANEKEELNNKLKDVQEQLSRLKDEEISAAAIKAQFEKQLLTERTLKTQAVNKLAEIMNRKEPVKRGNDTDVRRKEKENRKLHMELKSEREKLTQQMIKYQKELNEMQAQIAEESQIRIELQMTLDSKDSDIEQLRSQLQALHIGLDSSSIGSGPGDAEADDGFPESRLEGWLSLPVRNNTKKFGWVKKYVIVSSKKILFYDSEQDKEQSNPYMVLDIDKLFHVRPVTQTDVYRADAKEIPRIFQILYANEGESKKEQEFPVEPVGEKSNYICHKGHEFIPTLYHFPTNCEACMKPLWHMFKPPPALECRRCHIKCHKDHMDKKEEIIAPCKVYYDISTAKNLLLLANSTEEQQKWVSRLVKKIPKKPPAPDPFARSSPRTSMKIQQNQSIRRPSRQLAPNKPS

Regarding `CN(C)Cc1c(OCc2ccccc2)ccc2c(C(=O)NC3CC4(C3)CC(c3n[nH]c(=O)c5ccccc35)C4)cnn12` (stereo not drawn) [Example 130, 6-(benzyloxy)-7-((dimethylamino)methyl)-N-((αR)-6-(4-oxo-3,4-dihydrophthalazin-1-yl)spiro[3.3]heptan-2-yl)pyrazolo[1,5-α]pyridine-3-carboxamide], the concentration for half-maximal inhibition (IC50) fell in the range of 5.1 to 15 nM.
Consider `O=C(NC1CC2(C1)CC(c1n[nH]c(=O)c3ccccc13)C2)c1cnn2cc(-c3cn[nH]c3)ccc12` (stereo not drawn) [Example 174, N-((αR)-6-(4-oxo-3,4-dihydrophthalazin-1-yl)spiro[3.3]heptan-2-yl)-6-(1H-pyrazol-4-yl)pyrazolo[1,5-α]pyridine-3-carboxamide], for which the half-inhibitory concentration (IC50) fell in the range of 0.2 to 2 nM.
As for `O=C1N[C@@H](Cc2ccccc2)CN1[C@H]1CC2(C[C@H](c3n[nH]c(=O)c4ccccc43)C2)C1` (stereo partly drawn) [Example 458, 4-((aR)-6-((S)-4-benzyl-2-oxoimidazolidin-1-yl)spiro[3.3]heptan-2-yl)phthalazin-1(2H)-one], the IC50 lay in the range of 100 to 2100 nM.
The same measure for `O=C1c2ccccc2CN1C1CC2(CC(c3n[nH]c(=O)c4ccccc34)C2)C1` [Example 457, 4-((aR)-6-(1-oxoisoindolin-2-yl)spiro[3.3]heptan-2-yl)phthalazin-1(2H)-one]: 15.1 to 100 nM; for `Cn1nc(C(=O)N[C@H]2CC3(C2)C[C@H](c2n[nH]c(=O)c4ccccc42)C3)c2ccccc21` (single isomer, unassigned) [Example 14]: 2.01 to 5 nM.
In the case of `COc1ccccc1-c1ccc2c(C(=O)NC3CC4(C3)CC(c3n[nH]c(=O)c5ccccc35)C4)nn(CC(C)(C)O)c2c1` (centres unmarked) [Example 157, 1-(2-hydroxy-2-methylpropyl)-6-(2-methoxyphenyl)-N-((αR)-6-(4-oxo-3,4-dihydrophthalazin-1-yl)spiro[3.3]heptan-2-yl)-1H-indazole-3-carboxamide] it was 0.2 to 2 nM.
In the case of `Cc1cccc2c(C(=O)N[C@H]3CC4(C3)C[C@H](c3n[nH]c(=O)c5ccccc53)C4)cnn12` (stereo partly drawn) [Example 123, 7-methyl-N-((aR)-6-(4-oxo-3,4-dihydrophthalazin-1-yl)spiro[3.3]heptan-2-yl)pyrazolo[1,5-a]pyridine-3-carboxamide] it was 2.01 to 5 nM; in that of `CS(=O)(=O)c1ccn2c(C(=O)N[C@H]3CC4(C3)C[C@H](c3n[nH]c(=O)c5ccccc53)C4)cnc2c1` (stereo partly drawn) [Example 465, 7-(methylsulfonyl)-N-((aR)-6-(4-oxo-3,4-dihydrophthalazin-1-yl)spiro[3.3]heptan-2-yl)imidazo[1,2-a]pyridine-3-carboxamide], 5.1 to 15 nM; in that of `O=C(NC1CC2(C1)CC(c1n[nH]c(=O)c3ccccc13)C2)c1cnn2ccccc12` [Example 74, N-((aR)-6-(4-oxo-3,4-dihydrophthalazin-1-yl)spiro[3.3]heptan-2-yl)pyrazolo[1,5-a]pyridine-3-carboxamide], 2.01 to 5 nM.
Turning to `Cc1nc(N2CCC3CC32)sc1C(=O)NC1CC2(C1)CC(c1n[nH]c(=O)c3ccccc13)C2` [Example 40, rel-2-[(1S,5R)-2-azabicyclo[3.1.0]hexan-2-yl]-4-methyl-N-[(aR)-6-(4-oxo-3,4-dihydrophthalazin-1-yl)spiro[3.3]heptan-2-yl]-1,3-thiazole-5-carboxamide], the IC50 lay within 2.01 to 5 nM.
The same measure for `O=C(NC1CC2(C1)CC(c1n[nH]c(=O)c3ccccc13)C2)c1cnn2cc(O)ccc12` (stereo not drawn) [Example 137, 6-hydroxy-N-((αR)-6-(4-oxo-3,4-dihydrophthalazin-1-yl)spiro[3.3]heptan-2-yl)pyrazolo[1,5-α]pyridine-3-carboxamide]: 2.01 to 5 nM; for `Cn1nc(C(F)(F)F)cc1C(=O)NC1CC2(C1)CC(c1n[nH]c(=O)c3ccccc13)C2` [Example 25, 1-methyl-N-[(aR)-6-(4-oxo-3,4-dihydrophthalazin-1-yl)spiro[3.3]heptan-2-yl]-3-(trifluoromethyl)-1H-pyrazole-5-carboxamide]: 5.1 to 15 nM; for `[H][C@]1(c2n[nH]c(=O)c3ccccc32)C[C@]2(C[C@@H](NC(=O)c3cnc4cc(OCCN5CCOCC5)ccn34)C2)C1` (stereo partly drawn) [Example 398, 7-(2-morpholinoethoxy)-N-((aR)-6-(4-oxo-3,4-dihydrophthalazin-1-yl)spiro[3.3]heptan-2-yl)imidazo[1,2-a]pyridine-3-carboxamide]: 0.2 to 2 nM.
In the case of `O=C(NC1CC2(C1)CC(c1n[nH]c(=O)c3ccccc13)C2)c1cnn2cc(OCCN3CCC3)ccc12` [Example 186, 6-(2-(azetidin-1-yl)ethoxy)-N-((aR)-6-(4-oxo-3,4-dihydrophthalazin-1-yl)spiro[3.3]heptan-2-yl)pyrazolo[1,5-a]pyridine-3-carboxamide] it was 2.01 to 5 nM; in that of `O=C(NC1CC2(C1)CC(c1n[nH]c(=O)c3ccccc13)C2)N1CCc2ccc(C(F)(F)F)cc21` [Example 259, N-((aR)-6-(4-oxo-3,4-dihydrophthalazin-1-yl)spiro[3.3]heptan-2-yl)-6-(trifluoromethyl)indoline-1-carboxamide], 5.1 to 15 nM.
`[H][C@]1(c2n[nH]c(=O)c3ccccc32)C[C@]2(C[C@@H](NC(=O)c3ccc(-c4cnc(C)s4)c(OC)c3)C2)C1` (stereo partly drawn) [Example 350, 3-methoxy-4-(2-methylthiazol-5-yl)-N-((aR)-6-(4-oxo-3,4-dihydrophthalazin-1-yl)spiro[3.3]heptan-2-yl)benzamide]: the IC50 lay in the range of 2.01 to 5 nM.
The same measure for `[H][C@]1(c2n[nH]c(=O)c3ccccc32)C[C@]2(C[C@@H](NC(=O)c3cnc4cc(C#N)ccn34)C2)C1` (stereo partly drawn) [Example 379, 7-cyano-N-((aR)-6-(4-oxo-3,4-dihydrophthalazin-1-yl)spiro[3.3]heptan-2-yl)imidazo[1,2-a]pyridine-3-carboxamide]: 5.1 to 15 nM; for `Cc1c(C(=O)NC2CC3(C2)CC(c2n[nH]c(=O)c4ccccc24)C3)nnn1-c1ccccc1` [Example 114, 5-methyl-N-((aR)-6-(4-oxo-3,4-dihydrophthalazin-1-yl)spiro[3.3]heptan-2-yl)-1-phenyl-1H-1,2,3-triazole-4-carboxamide]: 2.01 to 5 nM; for `O=C(N[C@H]1CC2(C1)C[C@H](c1n[nH]c(=O)c3ccccc31)C2)c1ccn(CC(F)F)n1` (stereo partly drawn) [Example 19, 1-(2,2-Difluoroethyl)-N-[(aR)-6-(4-oxo-3,4-dihydrophthalazin-1-yl)spiro[3.3]heptan-2-yl]-1H-pyrazole-3-carboxamide]: 100 to 2100 nM.
`O=C(NC1CC2(C1)CC(c1n[nH]c(=O)c3ccccc13)C2)c1cnn2cc(N3CCC(F)C3)ccc12` [Example 88, 6-((R)-3-fluoropyrrolidin-1-yl)-N-((aR)-6-(4-oxo-3,4-dihydrophthalazin-1-yl)spiro[3.3]heptan-2-yl)pyrazolo[1,5-a]pyridine-3-carboxamide]: the half-maximal inhibitory concentration (IC50) fell in the range of 0.2 to 2 nM.
In the case of `[H][C@]1(c2n[nH]c(=O)c3ccccc32)C[C@]2(C[C@@H](NC(=O)c3cc4c(OC)ccc(OC)c4[nH]3)C2)C1` (stereo partly drawn) [Example 334, 4,7-dimethoxy-N-((aR)-6-(4-oxo-3,4-dihydrophthalazin-1-yl)spiro[3.3]heptan-2-yl)-1H-indole-2-carboxamide], the half-inhibitory concentration (IC50) was 5.1 to 15 nM.
On to `[H][C@]1(c2n[nH]c(=O)c3ccccc32)C[C@@]2(C[C@H](NC(=O)c3cnc4cc(N5CC[C@@H](O)C5)ccn34)C2)C1` (stereo partly drawn) [Example 395, 7-((R)-3-hydroxypyrrolidin-1-yl)-N-((aR)-6-(4-oxo-3,4-dihydrophthalazin-1-yl)spiro[3.3]heptan-2-yl)imidazo[1,2-a]pyridine-3-carboxamide], for which the IC50 lay in the range of 2.01 to 5 nM.
The same measure for `CN1CCN(CCOc2ccc3c(C(=O)NC4CC5(C4)CC(c4n[nH]c(=O)c6ccccc46)C5)cnn3c2)CC1` [Example 188, 6-(2-(4-methylpiperazin-1-yl)ethoxy)-N-((aR)-6-(4-oxo-3,4-dihydrophthalazin-1-yl)spiro[3.3]heptan-2-yl)pyrazolo[1,5-a]pyridine-3-carboxamide]: 0.2 to 2 nM; for `Cc1sc(N2CCCC2C(F)(F)F)nc1C(=O)NC1CC2(C1)CC(c1n[nH]c(=O)c3ccccc13)C2` [Example 59, 5-methyl-N-((aR)-6-(4-oxo-3,4-dihydrophthalazin-1-yl)spiro[3.3]heptan-2-yl)-2-((S)-2-(trifluoromethyl)pyrrolidin-1-yl)thiazole-4-carboxamide]: 5.1 to 15 nM.
In the case of `[H][C@]1(c2n[nH]c(=O)c3ccccc32)C[C@]2(C[C@@H](NC(=O)c3cnc4cc(OC)ccn34)C2)C1` (stereo partly drawn) [Example 385, 7-methoxy-N-((aR)-6-(4-oxo-3,4-dihydrophthalazin-1-yl)spiro[3.3]heptan-2-yl)imidazo[1,2-a]pyridine-3-carboxamide] it was 0.2 to 2 nM; in that of `O=C(NC1CC2(C1)CC(c1n[nH]c(=O)c3ccccc13)C2)c1cnn2cc(OCc3ccccc3)ccc12` [Example 99, 6-(benzyloxy)-N-((aR)-6-(4-oxo-3,4-dihydrophthalazin-1-yl)spiro[3.3]heptan-2-yl)pyrazolo[1,5-a]pyridine-3-carboxamide], 0.2 to 2 nM; in that of `Cn1nc(C(=O)NC2CC3(C2)CC(c2n[nH]c(=O)c4ccccc24)C3)c2ccccc21` (centres unmarked) [Example 5, 1-methyl-N-[6-(4-oxo-3,4-dihydrophthalazin-1-yl)spiro[3.3]heptan-2-yl]-1H-indazole-3-carboxamide], 2.01 to 5 nM.
For the compound `[H][C@]1(c2n[nH]c(=O)c3ccccc32)C[C@]2(C[C@@H](NC(=O)c3cnc4ccc(C(F)(F)F)cn34)C2)C1` (stereo partly drawn) [Example 390, N-((aR)-6-(4-oxo-3,4-dihydrophthalazin-1-yl)spiro[3.3]heptan-2-yl)-6-(trifluoro-methyl)imidazo[1,2-a]pyridine-3-carboxamide], the IC50 fell in the range of 5.1 to 15 nM.
As for `[H][C@]1(c2n[nH]c(=O)c3ccccc32)C[C@]2(C[C@@H](NC(=O)c3ccc(Br)cn3)C2)C1` (stereo partly drawn) [Example 375, 5-bromo-N-((aR)-6-(4-oxo-3,4-dihydrophthalazin-1-yl)spiro[3.3]heptan-2-yl)picolinamide], the IC50 was 15.1 to 100 nM.

Broadly, the IC50 is the midpoint of a concentration-inhibition curve.
